The text below walks through data of US20220118159A1, “ANTIOXIDANT-RELEASING VITREOUS SUBSTITUTES AND USES THEREOF” (Ohio State Innovation Foundation, priority 2019, published 2022).

The structures appear in SMILES notation. “Also recorded” adds a separate entry of the source. Read-outs that look alike come from different tables or passages of the source.

The nature of series [1]: Vitamin C remaining (stability) study, absorbance at 265 nm.
Description: (§5) Chitosan (Sigma-Aldrich, low molecular weight, 1 mg/ml) was dissolved in acetic acid solution (1% w/w, 500 ml) for 60 min at 500 rpm. Sodium tripolyphosphate (1.75 mg/ml, 500 ml) was added dropwise into the chitosan solution to form nanoparticles over 2 hours. The nanoparticles were collected by centrifugation at 4000 rpm for 15 min at 21° C. The particles were washed with deionized water and again centrifuged. Vitamin C (10% w/w, 10 ml, pH 5.5) was added to the particles and equilibrated for 18 hours on an orbital shaker. Sodium alginate (FMC BioPolymer, Protanal PH, 1 mg/ml, 10 ml, pH 5.5) was added to the vitamin C and chitosan particle solution and sonicated for 30 min. Chitosan (Sigma-Aldrich, low molecular weight, 1 mg/ml in 1% w/w acetic acid solution, 10 ml) or gelatin (bloom 175, 1 mg/ml, 10 ml) was added to the vitamin c-chitosan-alginate particles and sonicated for 30 min. The particles were collected by centrifugation at 4000 rpm for 15 min at 21° C. and freeze dried. […] Concentration of vitamin C versus time was determined using methods as described elsewhere in the Examples.
(§6) Either the particle solutions or the chemically-stabilized Vitamin C solutions were incubated in the hydrogels at 37° C.
(§7) For each solution tested, a control group with no vitamin C and a test group with vitamin C (1% w/w) alone in DPBS were included. […] All solutions were kept at 37° C. throughout the release studies. The amount of viable vitamin C remaining in the solutions was measured using a Synergy HT multi-mode microplate reader (BioTek, Winooski, Vt.) at wavelength 265 nm and compared to the control groups to determine the amount of viable vitamin C left in the solutions. To measure the concentration of vitamin C, solutions with particles were centrifuged at 3220 rpm for 5 min and solution (500 uL) was removed and placed into a 96-well plate measured on days 0, 1, 2, 3, 4, 7, 8, 9, 10, 11, and 14. After two weeks, solutions with higher concentrations of vitamin C were measured every other day until vitamin C was undetectable. For the particle solutions, DPBS solutions (500 uL) was added back into the solution to maintain a constant volume.
Series [2] concerns ARPE-19. The series can be described thus: CellTiter-Glo luminescent cell viability assay. The protocol:
(§1) Cell Viability and ROS Activity Assays. ARPE-19 and LEC were seeded in 96-well plates at 1×10^4 cells per well in DMEM/F-12 and DMEM, respectively, supplemented with 10% FCS and 1% Pen Strep for 24 h at 37° C. in 5% CO2 humidified atmosphere. The hydrogels were submerged in 70% ethanol for 1 hour to sterilize, rinsed with deionized water 3 times for 1 hour each to remove the residual ethanol, and mixed well with serum-free and phenol red-free DMEM at a hydrogel concentration of 10% w/v (J. Chang, et al., J Mater Chem B. 2015, 3, 1097-1105; Y. Tao, et al., Acta Biomater. 2013, 9, 5022-5030; M. Annaka, et al., Biomacromolecules. 2011, 12, 4011-4021; and S. Lamponi, et al., J. Biomater. Sci. Polym. Ed. 2012, 23, 555-575). The culture medium in each well was removed and medium (100 μL) with/without hydrogel and with/without vitamin C (2.2 mM) was added to each well and incubated for 24 hours. Hydrogen peroxide (10 200 μM final concentration) was added to half of the wells, and DPBS (10 μL) was added to the remaining wells as a control (A. Heckelen, et al., Acta Ophthalmol Scand. 2004, 82, 564-568; and H. S. Lee, et al., Invest. Ophthalmol. Vis. Sci. 2017, 58, 1196-1207). The well plates were incubated for 30 minutes. CellTiter-Glo luminescent cell viability assay was conducted according to the manufacturer's protocol. Briefly, the well plates were equilibrated to room temperature for 30 minutes. CellTiter-Glo Reagent (100 μL) was added to each well, and the contents were mixed for 10 minutes using an orbital shaker. The well plates were incubated at room temperature for 10 minutes before the luminescent signal was measured using the Synergy HT multi-mode microplate reader. ROS activity was detected using DCF. Briefly, DCF (100 20 μM final concentration) was added to each well, and the contents were incubated at room temperature for 30 minutes (Y. Ou, et al., Chem Biol Interact. 2009, 179, 103-109). The fluorescence signal was measured with excitation and emission wavelengths of 485 and 525 nm, respectively, using a TECAN M200 Plate Reader (Männedorf, Switzerland).
(§2) Screening of Hydrogen Peroxide, Vitamin C, and Glutathione Concentrations Using a Cell Viability Assay: ARPE-19 and LEC were seeded in 96-well plates at 1×10^4 cells per well in DMEM/F-12 and DMEM, respectively, supplemented with 10% FCS and 1% Pen Strep for 24 h at 37° C. in 5% CO2 humidified atmosphere. The culture medium in each well was removed and various media with vitamin C (2000 μM, 1000 μM, 500 μM, 100 μM, and 0 μM) or glutathione (10000 μM, 4000 μM, 2000 μM, 1000 μM, 500 μM, and 0 μM) was added to each well (100 μL) and incubated for 24 hours. Hydrogen peroxide (600 μM, 400 μM, 200 μM, 100 μM, 50 μM, and 0 μM) and a special case of vitamin C (2000 μM) was added (100 μL) 30 minutes before performing the viability assays. CellTiter-Glo luminescent cell viability assay was conducted according to the manufacturer's protocol. Briefly, the well plates were equilibrated to room temperature for 30 minutes. CellTiter-Glo Reagent (100 μL) was added to each well, and the contents were mixed for 10 minutes using an orbital shaker.

Series [3] concerns LEC. The series can be described thus: CellTiter-Glo luminescent cell viability assay. As for the experimental part:
as §1, §2

The subject of series [4] is ARPE-19. The series can be described thus: ROS activity, DCF assay. In kind it is cell-based, human. As for the experimental part: (§3) Cell Viability and ROS Activity Assays. […] The well plates were incubated for 30 minutes. […] ROS activity was detected using DCF. […] The fluorescence signal was measured with excitation and emission wavelengths of 485 and 525 nm, respectively, using a TECAN M200 Plate Reader (Männedorf, Switzerland).
(§4) Antioxidant Activity of Vitamin C in Reducing Reactive Oxygen Species (ROS) Activity Using DCF Assay: The ROS activity induced by hydrogen peroxide (200 μM for 30 minutes) of ARPE-19 and LEC treated with vitamin C (0, 100, and 1000 μM for 30 minutes or 24 hours) was determined using dichlorofluorescein assay. Briefly, LEC and ARPE-19 cells were cultured as aforementioned.

Series [5] relates to LEC. The series can be described thus: ROS activity, DCF assay. In kind it is cell-based, human. As for the experimental part:
as §3, §4

For series [6] the following is noted: 2 mM.
Description: as §5, §6, §7
Series [7] is described as follows: Sodium ascorbate degradation and release from polyacrylamide hydrogels. In kind it is physicochemical. Particulars: PBS, lag time about 36 hours after making. As for the experimental part:
The 2 mM sodium ascorbate solutions in PBS, which was diluted 20× before measurement as previously described, show an exponential-like decay in concentration over time (note that the y-axis is plotted on a log scale). Additionally, its concentration at time 0 was 1.4 mM, not 2 mM as made, since there was a lag time between when the solutions were made and when the experiment started. This lag time (about 36 hours) was due to the delayed gelation time of polyacrylamide hydrogels. The polymer solutions with sodium ascorbate gelled within 18 hours. However, the polymer solutions without sodium ascorbate took twice as long to gel.
The gelled polyacrylamide hydrogels (1 ml) with or without sodium ascorbate were submerged in 10 ml of PBS. […] The 1 ml aliquots were measured without dilution, since the sodium ascorbate concentrations were already within the linear region of the standard curve.
The absorbance readings of the hydrogels without sodium ascorbate increase with time. Since there was no sodium ascorbate added to these hydrogels, the increase in absorbance could be due to the small pieces of polymer leached out from the hydrogel causing UV light interference. […] The absorbance readings of hydrogels without sodium ascorbate can be subtracted from the ones with sodium ascorbate to obtain the true absorbance reading due to the varying concentrations of sodium ascorbate.

The mark [8] stands for this setting: glutathione, all tested conditions up to 10000 μM, 24 hours.
[9] abbreviates: Example 7: hydrogen peroxide 200 μM final, 30 minutes, vs non-treated.
Where [10] appears, read: H2O2 200 μM and 400 μM, 30 minutes.
The mark [11] stands for this setting: hydrogen peroxide 600 μM, 30 minutes.
The mark [12] stands for this setting: hydrogen peroxide at or below 100 μM, 30 minutes.
[13] abbreviates: hydrogen peroxide 200 μM, 30 minutes, compared to control.
[14] abbreviates: vitamin C 100 μM for 24 hours, H2O2 200 μM.
[15] abbreviates: vitamin C 100 μM, after 24 hours, not treated with H2O2.
[16] abbreviates: vitamin C 100 and 1000 μM for 30 minutes.

As to `N[C@@H](CCC(=O)N[C@@H](CS)C(=O)NCC(=O)O)C(=O)O` [Glutathione, glutathione], in series [1] (particles, presence of glutathione (FIGS. 18-19)), the “maintenance of vitamin C concentrations” value was “improved maintenance of vitamin C concentrations”. For the same compound, in series [1] (past 14 days, glutathione 4-10 mM (FIG. 25)), the “vitamin C remaining” value is on record as “More than half”. Besides, the “change of cell viability” value in series [2] (glutathione concentration above 100 μM) was “increased”; in series [3] (glutathione 4000 μM and 10000), “decreased”. Besides, the cell viability result in series [2] (setting [8]) and in series [3] (setting [8]) was “above 70%” each time.
`OO` [Hydrogen peroxide, hydrogen peroxide]: the cell viability result in series [2] (setting [9]) is “approximately the same or even higher”; in series [2] (setting [10]), “had no effect”; in series [2] (setting [11]), “significantly decreased cell viability”; in series [2] (setting [12]), “did not affect cell viability”; in series [3] (setting [9]), “statistically lower”; in series [3] (setting [10]) it was “significantly decreased the cell viability”. The cell viability result is given as “significantly decreased cell viability” in series [3] (setting [11]) and “did not affect cell viability” in series [3] (setting [12]). In addition, the ROS activity entry is “did not affect; also recorded: did not significantly respond” in series [4] (setting [13]) and “increased” in series [5] (setting [13]). Besides, in series [5] (hydrogen peroxide 200 μM), the “increase in ROS activity” value was found to be 1.5 times.
Turning to `O=C1O[C@H]([C@@H](O)CO)C(O)=C1O` [Vitamin C, ascorbic acid], the “vitamin C remaining” value in series [6] (72 h) worked out at 10%; in series [6] (5 days), 0%. The “reduction of ROS induced by hydrogen peroxide” value in series [4] (setting [14]) and in series [5] (setting [14]) was “not effective” each time. The ROS activity entry in series [4] (setting [15]) was “returned to the same level as the control”; in series [4] (vitamin C 1000 μM for 24 hours), “did not return to the normal control level”; in series [4] (setting [16]), 15-30%; in series [5] (setting [15]) it was “returned to the same level as the control”; in series [5] (vitamin C 1000 μM for 24 hours with H2O2), “the same ROS activity as the no H2O2 no vitamin C control”; in series [5] (setting [16]) it was 15-30%.
As for `O=C1O[C@H]([C@@H](O)CO)C([O-])=C1O.[Na+]` [sodium ascorbate], in series [7], the “concentration of 2 mM sodium ascorbate solution at time 0” value came to 1400 µM.
